“Also recorded” adds a separate entry of the source.
Experiments:
[1] = Population PK of allopurinol and oxypurinol in HIE neonates; assay type: in vivo, human; details: for Patients reaching the predefined AUC12 target: ALBINO study; for AUC: human, plasma, intravenous, 20 mg/kg; for Difference in CL between males and females: sex as covariate on CL; for Difference in CL between TH and non-TH patients: therapeutic hypothermia as categorical covariate on CL
[2] = renal, URAT1 most important transporter; cited from earlier work
xanthine oxidase (XO) = xanthine oxidase (XO) (Homo sapiens, UniProt P47989); details: in the first 24 h after birth
xanthine oxidase (XO), sequence (P47989 whole entry): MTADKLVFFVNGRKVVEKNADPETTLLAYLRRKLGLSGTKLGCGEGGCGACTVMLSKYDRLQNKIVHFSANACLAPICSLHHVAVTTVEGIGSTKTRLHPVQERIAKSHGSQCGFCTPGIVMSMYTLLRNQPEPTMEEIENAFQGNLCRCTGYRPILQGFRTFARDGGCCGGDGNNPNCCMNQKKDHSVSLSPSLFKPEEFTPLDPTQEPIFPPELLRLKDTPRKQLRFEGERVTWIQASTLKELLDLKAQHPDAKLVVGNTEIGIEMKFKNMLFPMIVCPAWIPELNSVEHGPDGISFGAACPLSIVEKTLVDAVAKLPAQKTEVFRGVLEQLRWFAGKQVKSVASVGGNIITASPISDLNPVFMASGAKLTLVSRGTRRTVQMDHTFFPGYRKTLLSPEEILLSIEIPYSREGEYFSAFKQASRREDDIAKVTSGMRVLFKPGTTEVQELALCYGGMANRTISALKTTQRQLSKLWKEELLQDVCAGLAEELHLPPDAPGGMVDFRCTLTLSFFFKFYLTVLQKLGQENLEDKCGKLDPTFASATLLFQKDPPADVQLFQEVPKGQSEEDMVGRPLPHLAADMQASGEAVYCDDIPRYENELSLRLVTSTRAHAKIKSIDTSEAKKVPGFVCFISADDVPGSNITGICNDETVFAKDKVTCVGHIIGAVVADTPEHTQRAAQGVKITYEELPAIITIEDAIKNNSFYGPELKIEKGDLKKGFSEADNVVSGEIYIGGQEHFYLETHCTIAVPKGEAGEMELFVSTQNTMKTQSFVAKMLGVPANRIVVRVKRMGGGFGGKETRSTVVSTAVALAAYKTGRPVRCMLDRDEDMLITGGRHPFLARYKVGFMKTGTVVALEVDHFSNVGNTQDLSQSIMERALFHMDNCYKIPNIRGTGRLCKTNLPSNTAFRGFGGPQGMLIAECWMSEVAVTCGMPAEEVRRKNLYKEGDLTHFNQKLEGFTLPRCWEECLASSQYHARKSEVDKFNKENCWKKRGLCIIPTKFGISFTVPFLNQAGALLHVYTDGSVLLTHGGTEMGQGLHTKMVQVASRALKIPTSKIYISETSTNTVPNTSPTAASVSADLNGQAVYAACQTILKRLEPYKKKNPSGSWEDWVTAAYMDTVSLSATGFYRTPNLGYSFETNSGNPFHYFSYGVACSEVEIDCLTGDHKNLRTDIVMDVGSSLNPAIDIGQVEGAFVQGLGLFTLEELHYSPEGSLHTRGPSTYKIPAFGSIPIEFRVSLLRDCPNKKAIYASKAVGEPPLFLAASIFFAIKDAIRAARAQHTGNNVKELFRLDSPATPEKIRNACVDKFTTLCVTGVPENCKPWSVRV

| Compound | Patients reaching the predefined AUC12 target ([1]; TH group) | Patients reaching the predefined AUC12 target ([1]; non-TH group) | AUC [1] | Difference in CL between males and females [1] | Difference in CL between TH and non-TH patients [1] | Glomerular filtered oxypurinol actively reabsorbed [2] | Decrease of estimated allopurinol CL due to autoinhibition (xanthine oxidase (XO)) |
| --- | --- | --- | --- | --- | --- | --- | --- |
| O=c1[nH]c(=O)c2c[nH]nc2[nH]1 [oxypurinol] | 61% | all patients reached the targets | 37400 ± 12800 ng·h/mL | No significant difference | No difference; also recorded: no significant differences; also recorded: not significantly different; also recorded: Clearances of allopurinol and oxypurinol were not significantly different between TH and non-TH patients | approximately 80% |  |
| Oc1ncnc2[nH]ncc12 [allopurinol] | 92% | all patients reached the targets | 160000 ± 62600 ng·h/mL | No significant difference | No difference; also recorded: no significant differences; also recorded: not significantly different; also recorded: Clearances of allopurinol and oxypurinol were not significantly different between TH and non-TH patients |  | 70% |

From publication PMC8813842 (Clinical Pharmacokinetics, 2021)
